Results from patent publication US6274587A, “Tricyclic dihydropyrimidine potassium channel openers” (Abbott Laboratories, priority 1999, dated 2001).

Experiments:
[1] = system: potassium channels; assay: Membrane Hyperpolarization (MHP) in Guinea-Pig Bladder (GPB) Cells, FLIPR with DiBAC(4)3; assay type: cell-based; conditions: for EC50: concentration eliciting 50% of the test sample's maximal response; for Maximal Response (% P1075): maximal steady-state hyperpolarization relative to 10 μM P1075 (100%)
Experimental: Compounds were evaluated for potassium channel opening activity using primary cultured quinea-pig urinary bladder (GPB) cells.
For the preparation of urinary bladder smooth muscle cells, urinary bladders were removed from male quinea-pigs (Hartley, Charles River, Wilmington, Mass.) weighing 300-400 g and placed in ice-cold Ca^2+ -free Krebs solution (Composition, mM: KCl, 2.7; KH2 PO4, 1.5; NaCl, 75; Na2 HPO4, 9.6; Na2 HPO4.7H2 O, 8; MgSO4, 2; glucose, 5; HEPES, 10; pH 7.4). Cells were isolated by enzymatic dissociation as previously described with minor modifications in (Klockner, U. and Isenberg, G., Pflugers Arch. 1985, 405, 329-339), hereby incorporated by reference. The bladder was cut into small sections and incubated in 5 mL of the Kreb's solution containing 1 mg/mL collagenase (Sigma, St. Louis, Mo.) and 0.2 mg/mL pronase (Calbiochem, La Jolla, Calif.) with continuous stirring in a cell incubator for 30 minutes. The mixture was then centrifuged at 1300×g for 5 minutes, and the pellet resuspended in Dulbecco's PBS (GIBCO, Gaithersburg, Md.) and recentrifuged to remove residual enzyme. The cell pellet was resuspended in 5 mL growth media (composition: Dulbecco's modified Eagle's medium supplemented with 10% fetal bovine serum, 100 units/niL penicillin, 100 units/mL streptomycin and […] amphotericin B) and further dissociated by pipetting the suspension through a flame-polished Pasteur pipette and passing it through a polypropylene mesh membrane (Spectrum, Houston, Tex.). The cell density was adjusted to 100,000 cells/mL by resuspension in growth media. Cells were plated in clear-bottomed black 96-well plates (Packard) for membrane potential studies at a density of 20,000 cells/well and maintained in a cell incubator with 90% air: 10% CO2 until confluent. Cells were confirmed to be of smooth muscle type by cytoskeletal staining using a monoclonal mouse anti human-α-smooth muscle actin (Biomeda, Foster City, Calif.).
Functional activity at potassium channels was measured by evaluating changes in membrane potential using the bis-oxonol dye DiBAC(4)3 (Molecular Probes) in a 96-well cell-based kinetic assay system, Fluorescent Imaging Plate Reader (FLIPR) (K. S. Schroeder et al., J. Biomed. Screen., v. 1 pp. 75-81 (1996)), hereby incorporated by reference. DiBAC(4)3 is an anionic potentiometric probe which partitions between cells and extracellular solution in a membrane potential-dependent manner. With increasing membrane potential (for example, K^+ depolarization), the probe further partitions into the cell; this is measured as an increase in fluorescence due to dye interaction with intracellular lipids and proteins. Conversely, decreasing membrane potential (hyperpolarizationby potassium channel openers) evokes a decrease in fluorescence.
Confluent quinea-pig urinary bladder cells cultured in black clear-bottomed96-well plates were rinsed twice with […] assay buffer (composition, mM: HEPES, 20; NaCl, 120; KCl, 2; CaCl2, 2; MgCl2, 1; glucose, 5; pH 7.4 at 25 ° C.) containing 5 μM DiBAC(4)3 and incubated with […] of the buffer in a cell incubator for 30 minutes at 37 ° C. to ensure dye distribution across the membrane. After recording the baseline fluorescence for 5 minutes, the reference or test compounds, prepared at 10 times the concentration in the assay buffer, were added directly to the wells. Changes in fluorescence were monitored for an additional 25 minutes. Hyperpolarization responses were corrected for any background noise and were normalized to the response observed with 10 μM of the reference compound P1075, N"-cyano-N-(tert-pentyl)-N'-(3-pyridinyl)quanidine, which was assigned as 100%. P1075 is a potent opener of smooth muscle KATP channels (Quast et al., Mol. Pharmacol., v. 43 pp. 474-481 (1993)) and was prepared using the procedures described in (Manley, J. Med. Chem. (1992) 35, 2327-2340), hereby incorporated by reference. […]

[2] = system: potassium channel; assay: Functional Potassium Channel Opening Activity in Isolated Bladder Strips (electrically stimulated twitch); conditions: Landrace pig bladder strips; for Index: ED50 of P1075 divided by ED50 of test agonist, averaged over tissues; for Efficacy (% P1075): maximal efficacy relative to P1075, field stimulation 0.05 Hz; for pD2: negative logarithm of ED50
Experimental: Compounds of the present invention were evaluated for functional potassium channel opening activity using tissue strips obtained from Landrace pig bladders.
Landrace pig bladders were obtained from female Landrace pigs of 9-30 kg. Landrace pigs wer eutanized with an intraperitoneal injection of pentobarbital solution, Somlethal®, J. A. Webster Inc., Sterling Mass. The entire bladder was removed and immediately placed into Krebs Ringer bicarbonate solution (composition, mM: NaCl, 120; NaHCO3, 20; dextrose, 11; KCl, 4.7; CaCl2, 2.5; MgSO4, 1.5; KH2 PO4, 1.2; K2 EDTA, 0.01, equilibrated with 5% CO2 /95% O2 pH 7.4 at 37 ° C.). Propranolol (0.004 mM) was included in all of the assays to block β-adrenoceptors. The trigonal and dome portions were discarded. Strips 3-5 mm wide and 20 mm long were prepared from the remaining tissue cut in a circular fashion. The mucosal layer was removed. One end was fixed to a stationary glass rod and the other to a Grass FT03 transducer at a basal preload of 1.0 gram. Two parallel platinum electrodes were included in the stationary glass rod to provide field stimulation of 0.05 Hz, 0.5 milli-seconds at 20 volts. This low frequency stimulation produced a stable twitch response of 100-500 centigrams. Tissues were allowed to equilibrate for at least 60 minutes and primed with 80 mM KCl. A control concentration response curve (cumulative) was generated for each tissue using the potassium channel opener P1075 as the control agonist. […] After a 60 minute rinsing period, a concentration response curve (cumulative) was generated for the test agonist in the same fashion as that used for the control agonist P1075. The maximal efficacy of each compounds (expressed as % relative to P1075) is reported. The amount of agent necessary to cause 50% of the agent's maximal response (ED50) was calculated using "ALLFIT" (DeLean et al., Am. J. Physiol., 235, E97 (1980)), hereby incorporated by reference, and agonist potencies were expressed as pD2 (the negative logarithm). Agonist potencies were also expressed as an index relative to P1075. The index was calculated by dividing the ED50 for P1075 by the ED50 for the test agonist in a given tissue. Each tissue was used for only one test agonist, and the indices obtained from each tissue were averaged to provide an average index of potency.

[3] = target: smooth muscle KATP channels (Rattus norvegicus, UniProt Q63563); conditions: Quast et al., Mol. Pharmacol., v. 43 pp. 474-481 (1993); cited from earlier work
Sequence of smooth muscle KATP channels (Q63563 1-1545 isoform Q63563-2): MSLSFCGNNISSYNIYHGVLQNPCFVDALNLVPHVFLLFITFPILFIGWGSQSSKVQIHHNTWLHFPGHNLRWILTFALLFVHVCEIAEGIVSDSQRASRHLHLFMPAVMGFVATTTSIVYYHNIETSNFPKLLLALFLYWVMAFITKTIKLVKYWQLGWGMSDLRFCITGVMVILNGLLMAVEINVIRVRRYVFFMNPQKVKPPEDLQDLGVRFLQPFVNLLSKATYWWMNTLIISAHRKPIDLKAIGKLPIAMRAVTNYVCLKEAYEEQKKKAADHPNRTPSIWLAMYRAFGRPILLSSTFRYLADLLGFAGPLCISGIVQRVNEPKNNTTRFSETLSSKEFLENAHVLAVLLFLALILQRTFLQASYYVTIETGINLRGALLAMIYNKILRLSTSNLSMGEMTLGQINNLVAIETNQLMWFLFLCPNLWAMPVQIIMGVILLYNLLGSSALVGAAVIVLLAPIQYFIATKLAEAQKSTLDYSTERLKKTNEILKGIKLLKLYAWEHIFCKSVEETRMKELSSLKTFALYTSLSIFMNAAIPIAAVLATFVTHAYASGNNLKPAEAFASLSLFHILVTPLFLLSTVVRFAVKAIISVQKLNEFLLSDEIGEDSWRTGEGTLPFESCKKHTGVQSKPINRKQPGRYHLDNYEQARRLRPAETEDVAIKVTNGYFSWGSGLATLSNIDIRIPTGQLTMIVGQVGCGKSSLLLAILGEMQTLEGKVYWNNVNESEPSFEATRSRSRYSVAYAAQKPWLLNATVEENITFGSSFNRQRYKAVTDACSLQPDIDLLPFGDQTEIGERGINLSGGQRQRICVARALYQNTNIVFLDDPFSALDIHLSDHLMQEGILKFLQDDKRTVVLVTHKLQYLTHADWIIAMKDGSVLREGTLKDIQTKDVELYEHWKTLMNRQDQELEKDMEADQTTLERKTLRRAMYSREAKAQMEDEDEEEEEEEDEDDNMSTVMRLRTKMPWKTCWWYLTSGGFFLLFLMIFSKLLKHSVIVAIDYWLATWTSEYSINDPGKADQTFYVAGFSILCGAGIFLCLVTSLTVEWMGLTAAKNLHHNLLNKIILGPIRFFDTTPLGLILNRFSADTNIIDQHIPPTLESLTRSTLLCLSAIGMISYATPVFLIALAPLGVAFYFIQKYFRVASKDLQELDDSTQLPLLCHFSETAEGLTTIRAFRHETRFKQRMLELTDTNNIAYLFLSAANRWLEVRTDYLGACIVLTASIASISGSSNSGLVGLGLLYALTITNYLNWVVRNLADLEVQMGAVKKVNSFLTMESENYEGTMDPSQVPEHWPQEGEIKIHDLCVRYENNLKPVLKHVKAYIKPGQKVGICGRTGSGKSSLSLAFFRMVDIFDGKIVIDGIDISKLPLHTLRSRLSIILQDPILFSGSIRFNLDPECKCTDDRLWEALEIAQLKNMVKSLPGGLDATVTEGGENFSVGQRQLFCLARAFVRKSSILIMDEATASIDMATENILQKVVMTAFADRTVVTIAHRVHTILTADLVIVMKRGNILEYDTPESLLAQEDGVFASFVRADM
Sequence of smooth muscle KATP channels (Q63664 whole entry partner): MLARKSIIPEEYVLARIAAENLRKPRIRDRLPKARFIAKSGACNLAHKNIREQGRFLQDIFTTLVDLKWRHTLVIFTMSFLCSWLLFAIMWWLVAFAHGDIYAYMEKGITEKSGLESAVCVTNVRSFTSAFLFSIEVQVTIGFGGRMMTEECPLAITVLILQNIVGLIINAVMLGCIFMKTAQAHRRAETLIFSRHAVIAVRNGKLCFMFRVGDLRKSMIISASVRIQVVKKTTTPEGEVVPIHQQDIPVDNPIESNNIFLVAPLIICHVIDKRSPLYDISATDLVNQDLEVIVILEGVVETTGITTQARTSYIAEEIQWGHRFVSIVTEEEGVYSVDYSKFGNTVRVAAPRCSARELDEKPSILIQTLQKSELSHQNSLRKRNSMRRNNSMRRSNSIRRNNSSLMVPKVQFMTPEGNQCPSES

| SMILES | EC50 [1] [nM] | Maximal Response (% P1075) [1] [% P1075] | Index [2] | Efficacy (% P1075) [2] [% P1075] | pD2 [2] | elimination of the stimulated twitch ([2]; dose dependent over 10^-9 to 10^-5 M) | opener of smooth muscle KATP channels [3] |
| --- | --- | --- | --- | --- | --- | --- | --- |
| O=C1CCCC2=C1C(c1ccc3ccccc3c1)n1nccc1N2 (stereo not drawn) [Example 4, 9-(2-naphthyl)-5,6,7,9-tetrahydropyrazolo[5,1-b]quinazolin-8(4H)-one] | 429 | 96 |  |  |  |  |  |
| O=C1CCCC2=C1C(c1ccc(Cl)c(C(F)(F)F)c1)n1nccc1N2 (stereo not drawn) [Example 9, 9-[4-chloro-3-(trifluoromethyl)phenyl]-5,6,7,9-tetrahydropyrazolo[5,1-b]quinazolin-8(4H)-one] | 187 | 94 |  |  |  |  |  |
| O=C1CCCC2=C1C(c1ccc(Br)c(Br)c1)n1nccc1N2 (stereo not drawn) [Example 5, 9-(3 4-dibromophenyl)-5,6,7,9-tetrahydropyrazolo[5,1-b]quinazolin-8(4H)-one] | 122 | 98 |  |  |  |  |  |
| O=C1CSCC2=C1C(c1ccc(F)c(Br)c1)n1nccc1N2 (stereo not drawn) [Example 2, 9-(3-bromo-4-fluorophenyl)-5,9-dihydro-4H-pyrazolo[1,5-a]thiopyrano[3,4-d]pyrimidin-8(7H)-one] | 40 | 100 |  |  |  |  |  |
| O=C1CCCC2=C1C(c1cccc(Br)c1)n1nccc1N2 (stereo not drawn) [Example 7, 9-(3-bromophenyl)-5,6,7,9-tetrahydropyrazolo[5,1-b]quinazolin-8(4H)-one] | 550 | 98 |  |  |  |  |  |
| O=C1CCCC2=C1C(c1cccc3ccccc13)n1nccc1N2 (stereo not drawn) [Example 3, 9-(1-naphthyl)-5,6,7,9-tetrahydropyrazolo[5,1-b]quinazolin-8(4H)-one] | 24000 | 34 |  |  |  |  |  |
| CCC(C)(C)NC(=NC#N)Nc1cccnc1 [Example P1075, N"-cyano-N-(tert-pentyl)-N'-(3-pyridinyl)quanidine, reference compound] |  |  |  |  |  | completely eliminated the stimulated twitch | potent opener |
| O=C1CCCC2=C1C(c1ccc(F)c(C(F)(F)F)c1)n1nccc1N2 (stereo not drawn) [Example 10, 9-[4-fluoro-3-(trifluoromethyl)phenyl]-5,6,7,9-tetrahydropyrazolo[5,1-b]quinazolin-8(4H)-one] | 290 | 100 |  |  |  |  |  |
| O=C1CCCC2=C1C(c1ccc(F)c(Br)c1)n1nccc1N2 (stereo not drawn) [Example 1] | 31 | 87 | 0.26 | 96 | 6.47 |  |  |
| O=C1CCCC2=C1C(c1cccc(Cl)c1)n1nccc1N2 (stereo not drawn) [Example 8, 9-(3-chlorophenyl)-5,6,7,9-tetrahydropyrazolo[5,1-b]quinazolin-8(4H)-one] | 1120 | 92 |  |  |  |  |  |
| O=C1CCCC2=C1C(c1ccc(Cl)c(Cl)c1)n1nccc1N2 (stereo not drawn) [Example 6, 9-(3,4-dichlorophenyl)-5,6,7,9-tetrahydropyrazolo [5,1-b]quinazolin-8(4H)-one] | 130 | 95 |  |  |  |  |  |

More lines, main results first:

| EC50 [1] [nM] | SMILES | Maximal Response (% P1075) [1] [% P1075] | Index [2] | Efficacy (% P1075) [2] [% P1075] | pD2 [2] | elimination of the stimulated twitch ([2]; dose dependent over 10^-9 to 10^-5 M) | opener of smooth muscle KATP channels [3] |
| --- | --- | --- | --- | --- | --- | --- | --- |
| 258 | O=C1OCC2=C1C(c1ccc(F)c(Br)c1)n1nccc1N2 (stereo not drawn) [Example 14, 8-(3-bromo-4-fluorophenyl)-5,8-dihydro-4H,7H-furo[3,4-d]pyrazolo[1,5-a]pyrimidin-7-one] | 89 |  |  |  |  |  |
| 2860 | N#Cc1cccc(C2C3=C(CCCC3=O)Nc3ccnn32)c1 (stereo not drawn) [Example 12, 9-(3-cyanophenyl)-5,6,7,9-tetrahydropyrazolo[5,1-b]quinazolin-8(4H)-one] | 85 |  |  |  |  |  |
| 10000 | Cc1cccc(C2C3=C(CCCC3=O)Nc3ccnn32)c1 (stereo not drawn) [Example 13, 9-(3-methylphenyl)-5,6,7,9-tetrahydropyrazolo[5,1-b]quinazolin-8(4H)-one] | 50 |  |  |  |  |  |
| 51 | O=C1CCCC2=C1C(c1ccc(F)c(Br)c1)n1nccc1N2 (single isomer, unassigned; (-)) [Example 15, (-) 9-(3-bromo-4-fluorophenyl)-5,6,7,9-tetrahydropyrazolo[5,1-b]quinazolin-8(4H)-one] | 103 | 0.21 | 100 | 6.67 |  |  |
| 20 | O=C1CCCC2=C1C(c1ccc(F)c(Br)c1)n1nccc1N2 (single isomer, unassigned; (+)) [Example 16, (+) 9-(3-bromo-4-fluorophenyl)-5,6,7,9-tetrahydropyrazolo [5,1-b]quinazolin-8(4H)-one] | 105 | 0.28 | 95 | 6.34 |  |  |
| 1710 | O=C1CCCC2=C1C(c1cccc(OC(F)(F)F)c1)n1nccc1N2 (stereo not drawn) [Example 11, 9-[3-(trifluoromethoxy)phenyl]-5,6,7,9-tetrahydropyrazolo[5,1-b]quinazolin-8(4H)-one] | 90 |  |  |  |  |  |
| 910 | O=S1(=O)CCCC2=C1C(c1ccc(F)c(Br)c1)n1nccc1N2 (stereo not drawn) [Example 17] | 89 |  |  |  |  |  |
